From ChEMBL document CHEMBL1140143, “Combining ligand-based pharmacophore modeling, quantitative structure-activity relationship analysis and in silico screening for the discovery of new potent hormone sensitive lipase inhibitors” (J Med Chem, 2008)

Target: T1, Hormone-sensitive lipase (Rattus norvegicus, UniProt P15304)
T1 sequence (P15304 whole entry): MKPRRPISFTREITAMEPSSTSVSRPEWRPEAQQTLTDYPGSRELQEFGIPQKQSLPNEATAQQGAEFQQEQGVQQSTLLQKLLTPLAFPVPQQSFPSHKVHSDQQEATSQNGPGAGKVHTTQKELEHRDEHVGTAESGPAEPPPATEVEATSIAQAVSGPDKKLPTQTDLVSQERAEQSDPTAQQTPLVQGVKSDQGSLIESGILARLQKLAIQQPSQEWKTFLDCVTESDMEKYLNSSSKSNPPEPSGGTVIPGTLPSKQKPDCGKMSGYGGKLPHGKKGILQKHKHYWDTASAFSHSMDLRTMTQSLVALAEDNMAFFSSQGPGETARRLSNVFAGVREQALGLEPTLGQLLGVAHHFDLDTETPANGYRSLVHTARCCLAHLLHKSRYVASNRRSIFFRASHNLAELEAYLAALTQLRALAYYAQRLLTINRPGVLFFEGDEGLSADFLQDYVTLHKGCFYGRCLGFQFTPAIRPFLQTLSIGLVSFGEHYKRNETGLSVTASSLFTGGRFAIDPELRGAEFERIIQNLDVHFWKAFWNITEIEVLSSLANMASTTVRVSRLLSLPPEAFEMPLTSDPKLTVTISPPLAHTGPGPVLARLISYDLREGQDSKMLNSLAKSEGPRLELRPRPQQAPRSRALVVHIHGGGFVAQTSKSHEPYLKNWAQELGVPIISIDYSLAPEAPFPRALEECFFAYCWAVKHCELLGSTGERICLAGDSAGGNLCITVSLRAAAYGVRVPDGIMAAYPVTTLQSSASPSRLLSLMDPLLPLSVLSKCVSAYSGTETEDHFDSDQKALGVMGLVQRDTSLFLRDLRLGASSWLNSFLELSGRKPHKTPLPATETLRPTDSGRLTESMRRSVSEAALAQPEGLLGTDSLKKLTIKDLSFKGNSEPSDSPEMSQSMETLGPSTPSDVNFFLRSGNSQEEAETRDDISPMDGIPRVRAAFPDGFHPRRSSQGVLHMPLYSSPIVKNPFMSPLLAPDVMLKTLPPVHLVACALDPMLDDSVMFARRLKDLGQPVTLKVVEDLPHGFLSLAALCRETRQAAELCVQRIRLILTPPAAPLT
Test: Inhibition of HSL in Wistar rat isolated fat cells by spectrophotometric assay

Row | Structure (SMILES) | IC50 [nM]
1 | Cc1c(C(C)C)c(=O)on1C(=O)N1CCCC(C)(C)C1 | 7
2 | CN(C(=O)n1nc(-c2ccc(Cl)cc2)nc1SCC(F)(F)F)c1ccccc1 | 3
3 | Cc1ccc(-c2nc(SCC(F)(F)F)n(C(=O)N(C)C)n2)cc1 | 10.6
4 | CSc1nc(/C=C/c2ccccc2)nn1C(=O)N(C)C | 882
5 | Cc1c(CC(C)C)c(=O)on1C(=O)N1CCCCC1 | 5
6 | Cc1c(C(C)C)c(=O)on1C(=O)N1CCCC(CO)C1 (stereo not given) | 180
7 | Cc1ccc(C2CCN(C(=O)n3oc(=O)c(C(C)C)c3C)CC2)cc1 | 37
8 | Cc1c(C2CCCC2)c(=O)on1C(=O)N1CCCCC1 | 6
9 | CCSc1nc(-c2ccc(Cl)cc2)nn1C(=O)N(C)C | 3.71
10 | Cc1c(C(C)C)c(=O)on1C(=O)N1CCN(Cc2ccccc2)CC1 | 65
11 | CCCCCCSc1nc(-c2ccc(C)cc2)nn1C(=O)N(C)c1ccccc1 | 12.3
12 | CCCCc1c(C)n(C(=O)N2CCCCC2)oc1=O | 7
13 | COCCc1c(C)n(C(=O)N2CCC(c3ccccc3)CC2)oc1=O | 11
14 | CCOC(=O)C1CCN(C(=O)n2oc(=O)c(C(C)C)c2C)CC1 | 6
15 | CCN(CC)C(=O)C1CCCN(C(=O)n2oc(=O)c(C(C)C)c2C)C1 (stereo not given) | > 1000
16 | Cc1c(C2CCCC2)c(=O)on1C(=O)N1CCC(c2ccccc2)CC1 | 24
17 | Cc1c(C(C)C)c(=O)on1C(=O)N1CCC(C)CC1 | 6
18 | Cc1c(C(C)C)c(=O)on1C(=O)N1CCC(c2ccc(C(C)(C)C)cc2)CC1 | 480
19 | Cc1c(C(C)C)c(=O)on1C(=O)N1CCC(C(=O)c2ccccc2)CC1 | 250
20 | Cc1c(-c2ccccc2)c(=O)on1C(=O)N1CCCCC1 | 14
21 | Cc1c(C(C)C)c(=O)on1C(=O)N1CC(C)CC(C)C1 (stereo not given) | 326
22 | Cc1c(C(C)C)c(=O)on1C(=O)N1CCCCCC1 | 62
23 | Cc1c(C(C)C)c(=O)on1C(=O)N1CCN(c2ncccn2)CC1 | 67
24 | Cc1c(C2CCCCC2)c(=O)on1C(=O)N1CCC(C)CC1 | 4
25 | Cc1c(C(C)C)c(=O)on1C(=O)N1CCNCC1 | > 1000
26 | Cc1c(C(C)C)c(=O)on1C(=O)N1CCC(=O)CC1 | 200
27 | COc1ccc(-c2nc(SC)n(C(=O)N(C)C)n2)cc1 | 15.9

Row | Structure (SMILES) | IC50 [nM]
28 | CCCCc1c(C)n(C(=O)N2CCC(C)CC2)oc1=O | 1
29 | COCCc1c(C)n(C(=O)N2CCC(c3cccc(F)c3)CC2)oc1=O | 20
30 | Cc1c(C(C)C)c(=O)on1C(=O)N1CCC[C@H](C)C1 | 3
31 | Cc1c(C(C)C)c(=O)on1C(=O)N(C)CC(N)=O | > 1000
32 | CCSc1nc(-c2ccc(OC)cc2)nn1C(=O)N(C)c1ccccc1 | 5.29
33 | Cc1c(Sc2ccc(Cl)cc2)c(=O)on1C(=O)N1CCCCC1 | 6
34 | Cc1c(C(C)(C)C)c(=O)on1C(=O)N1CCCCC1 | 14
35 | Cc1c(CC(C)C)c(=O)on1C(=O)N1CCC(C)CC1 | 3
36 | CSc1nc(-c2ccc(Cl)cc2)nn1C(=O)N1CCCCC1 | 1.76
37 | COCCc1c(C)n(C(=O)N2CCCCC2)oc1=O | 10
38 | Cc1c(C(C)C)c(=O)on1C(=O)N1CCCCC1C (stereo not given) | 93
39 | CSc1nc(-c2ccc(C)cc2)nn1C(=O)N1CCOCC1 | 70.6
40 | Cc1ccc(CN(C)C(=O)n2oc(=O)c(C(C)C)c2C)cc1 | 408
41 | CCN(CC)C(=O)n1oc(=O)c(C(C)C)c1C | 1400
42 | CSc1nc(-c2ccc(C(F)(F)F)cc2)nn1C(=O)N(C)C | 1.76
43 | Cc1ccc(-c2nc(SCc3ccccc3)[nH]c(=O)c2CCO)cc1 | 2980
44 | CSc1nc(-c2ccc(Cl)cc2)nn1C(=O)N(C)C | 0.353
45 | Cc1c(C(C)C)c(=O)on1C(=O)N1CCCC1 | 15
46 | Cc1c(C(C)C)c(=O)on1C(=O)N1CCC(c2ccc(C(F)(F)F)cc2)CC1 | 160
47 | Cc1c(C(C)C)c(=O)on1C(=O)N1CCCCC1 | 2
48 | Cc1c(C(C)C)c(=O)on1C(=O)N(C)c1ccccn1 | 240
49 | Cc1c(C(C)C)c(=O)on1C(=O)N1CCCc2ccccc21 | 60
50 | Cc1c(C(C)C)c(=O)on1C(=O)N(C)Cc1ccccc1 | 5
51 | Cc1c(C(C)C)c(=O)on1C(=O)N(C)Cc1ccccc1F | 4
52 | Cc1c(C(C)C)c(=O)on1C(=O)N1CCC(Cc2ccccc2)CC1 | 102
53 | CSc1nc(-c2ccc(Cl)cc2)nn1C(=O)N1CCOCC1 | 35.3
54 | Cc1c(S(=O)(=O)c2ccc(Cl)cc2)c(=O)on1C(=O)N1CCCCC1 | 35

Row | Structure (SMILES) | IC50 [nM]
55 | Cc1c(C(C)C)c(=O)on1C(=O)N(C)CCc1ccccc1 | 180
56 | O=C(N1CCOCC1)n1nc(-c2ccc(Cl)cc2)nc1SCC(F)(F)F | 159
57 | CSc1nc(-c2cccc3ccccc23)nn1C(=O)N(C)C | 35.3
58 | CSc1nc(-c2ccc(C)cc2)nn1C(=O)N(C)c1ccccc1 | 1.76
59 | Cc1c(Cc2ccccc2)c(=O)on1C(=O)N1CCCCC1 | 5
60 | Cc1c(C(C)C)c(=O)on1C(=O)N(C)Cc1ccc(F)cc1 | 111
61 | Cc1c(C2CCSCC2)c(=O)on1C(=O)N1CCCCC1 | 11
62 | Cc1c(C(C)C)c(=O)on1C(=O)N(C)C1CCCCC1 | 9
63 | CCSc1nc(-c2ccc(OC)cc2)nn1C(=O)N1CCOCC1 | 159
64 | Cc1c(C(C)C)c(=O)on1C(=O)NCC1CCCCC1 | 72
65 | Cc1c(CC(C)C)c(=O)on1C(=O)N1CCC(c2ccccc2)CC1 | 10
66 | Cc1c(C(C)C)c(=O)on1C(=O)N1CCC(C(=O)N(C)C)CC1 | > 1000
67 | Cc1c(C2CCCCC2)c(=O)on1C(=O)N1CCCCC1 | 11
68 | Cc1c(C(C)C)c(=O)on1C(=O)N1CCC(O)(c2ccccc2)CC1 | > 1000
69 | Cc1c(C(C)C)c(=O)on1C(=O)N1CCN(C)CC1 | 314
70 | CCCCCCSc1nc(-c2ccc(Cl)cc2)nn1C(=O)N1CCOCC1 | 882
71 | Cc1c(Cc2cc3ccccc3n2C)c(=O)on1C(=O)N1CCCCC1 | 17
72 | Cc1c(C(C)C)c(=O)on1C(=O)N1CCC(c2cccc(F)c2)CC1 | 12
73 | Cc1c(C(C)C)c(=O)on1C(=O)N(C)CCC#N | > 1000
74 | Cc1nnc(C2CCN(C(=O)n3oc(=O)c(C(C)C)c3C)CC2)o1 | > 1000
75 | CCOC(=O)C1CCCN(C(=O)n2oc(=O)c(C(C)C)c2C)C1 (stereo not given) | 28
76 | CCOc1nn(-c2cccc(OCc3ccccc3)c2)c(=O)o1 | 19.4
77 | O=C(N1CCCCC1)n1nc(-c2ccc(Cl)cc2)nc1SC1CCCCC1 | 882
78 | CCc1c(C)n(C(=O)N2CCCCC2)oc1=O | 18
79 | Cc1c(C(C)C)c(=O)on1C(=O)N1CCN(c2ccccc2)CC1 | 6
80 | Cc1c(Sc2ccccc2)c(=O)on1C(=O)N1CCCCC1 | 6
81 | Cc1c(C2CCS(=O)(=O)CC2)c(=O)on1C(=O)N1CCCCC1 | 55

Row | Structure (SMILES) | IC50 [nM]
82 | CSc1nc(-c2ccc(Cl)cc2)nn1C(=O)N(C)c1ccccc1 | 2.82
83 | Cc1c(C(C)C)c(=O)on1C(=O)N1CC=CC1 | 72
84 | O=C(N1CCCCC1)n1nc(-c2ccc(Cl)cc2)nc1SCC(F)(F)F | 7.06
85 | Cc1c(C(C)C)c(=O)on1C(=O)N(C)c1ccccc1 | 7
86 | CCCCCCSc1nc(-c2ccc(Cl)cc2)nn1C(=O)N(C)c1ccccc1 | 7.06
87 | Cc1c(C(C)C)c(=O)on1C(=O)N(C)c1ccc(Cl)cc1 | 17
88 | Cc1c(C(C)C)c(=O)on1C(=O)N1CCC(c2ccccc2)CC1 | 12
89 | CSc1nc(-c2ccc(C)cc2)nn1C(=O)N(C)C | 0.53
90 | Cc1c(C(C)C)c(=O)on1C(=O)N1CC(C)CCC1C (stereo not given) | 460
91 | Cc1c(C(C)C)c(=O)on1C(=O)N1CCC(O)CC1 | 166
92 | CSc1nc(-c2ccc(-c3ccccc3)cc2)nn1C(=O)N(C)C | 26.5
93 | Cc1c(C(C)C)c(=O)on1C(=O)N1CCCCCCC1 | 900
94 | Cc1c(C2CCOCC2)c(=O)on1C(=O)N1CCCCC1 | 71
95 | CN(C(=O)n1nc(-c2ccc(Cl)cc2)nc1SCC1CC1)c1ccccc1 | 1.09
96 | O=C(N1CCCCC1)n1nc(-c2ccc(Cl)cc2)nc1SCC1CC1 | 3.53
97 | Cc1c(C(C)C)c(=O)on1C(=O)N(C)Cc1cccs1 | 2
98 | Cc1c(C(C)C)c(=O)on1C(=O)Nc1ccccc1 | > 1000
99 | Cc1c(C(C)C)c(=O)on1C(=O)N1CCc2ccccc21 | > 1000
100 | COCCc1c(C)n(C(=O)N2CCC(c3cccc(C)c3)CC2)oc1=O | 23
101 | Cc1c(C(C)C)c(=O)on1C(=O)N1CCOCC1 | 52
102 | CSc1nc(-c2ccc(OC(F)(F)F)cc2)nn1C(=O)N(C)c1ccccc1 | 4.41
103 | CCCSc1nc(-c2ccc(Cl)cc2)nn1C(=O)N(C)C | 1.06
104 | Cc1c(C(C)C)c(=O)on1C(=O)N1CCC[C@@H](C)C1 | 20
105 | Cc1c(C(C)C)c(=O)on1C(=O)NC(C)(C)C | > 1000
